Source: patent US20240409536A1, “COMPOUNDS AND METHODS FOR MODULATING SPLICING” (REMIX THERAPEUTICS INC., priority 2021, published 2024)
pIC50: −log10 of the molar value.

How the values were obtained:
[1] = system: HTT mRNA; experiment: Gene panel canonical junction qPCR assay, HTT CJ mRNA decrease; type: cell-based, human; details: Homo sapiens, decrease in CJ mRNA levels, read-out: HTT IC50
Procedure: (§1) Compounds described herein were used to modulate RNA transcript abundance in cells. The expression of a target mRNA was measured by detecting the formation of an exon-exon junction in the canonical transcript (CJ). A compound mediated exon-inclusion event was detected by observing an increase in formation of a new junction with an alternative exon (AJ). Real-time qPCR assays were used to detect these splicing switches and interrogate the potency of various compounds towards different target genes. A high-throughput real time quantitative PCR (RT-qPCR) assay was developed to measure these two isoforms of the mRNA (CJ and AJ) for exemplary genes, such as HTT, SMN2, and MYB, together with a control housekeeping gene, GAPDH or GUSB or PPIA, used for normalization. Briefly, the A673 or K562 cell line was treated with various compounds described herein (e.g., compounds of Formula (I), (I), or (III)). After treatment, the levels of the HTT, MYB, or SMN2 mRNA targets were determined from each sample of cell lysate by cDNA synthesis followed by qPCR.
(§2) The data analysis was performed by first determining the ΔCt vs the housekeeper gene. This ΔCt was then normalized against the DMSO control (ΔΔCt) and converted to RQ (relative quantification) using the 2^(−ΔΔCt) equation. The RQ were then converted to a percentage response by arbitrarily setting an assay window of 3.5 and 4.0 ΔCt for HTT-CJ and MYB-CJ respectively and an assay window of 9 and 3 ΔCt for HTT-AJ and MYB-AJ in 96 well format (50,000 K562 cells/well and 15,000 A673 cells per well) and an assay window of 3 and 4 ΔCt for HTT-CJ and MYB-CJ respectively and an assay window of 5 and 3 ΔCt for HTT-AJ and MYB-AJ respectively in 384 well format (8,000 K562 cells/well example). […] The percentage response was then fitted to the 4 parametric logistic equation to evaluate the concentration dependence of compound treatment. The increase in AJ mRNA is reported as AC50 (compound concentration having […] in AJ increase) while the decrease in CJ mRNA levels is reported as IC50 (compound concentration having 50) response in CJ decrease).
(§3) Additional studies were carried out for a larger panel of genes using the protocol provided above. The junction between flanking upstream and downstream exons was used to design canonical junction qPCR assays. At least one of the forward primer, reverse primer or the CY5-labeled 5′ nuclease probe (with 3′ quencher such as ZEN/Iowa Black FQ) was designed to overlap with the exon junction to capture the CJ mRNA transcript. BLAST was used to confirm the specificity of the probeset and parameters such as melting temperature, GC content, amplicon size, and primer dimer formation are considered during their design. Data for the decrease in CJ mRNA levels for four exemplary genes (HTT, SMN2, MYB, and Target C) analyzed in this panel are reported as IC50 (compound concentration having […] in CJ decrease).
(§4) A summary of the results from the panel is illustrated in Tables 5A and 51B, wherein “A” represents an IC50 of less than 100 nM; “B” represents an IC50 of between 100 nM and 1 μM; and “C” represents an IC50 of between 1 μM and 10 μM; and “D” represents an IC50 of greater than 10 μM.

[2] = system: Target C mRNA; experiment: Gene panel canonical junction qPCR assay, Target C CJ mRNA decrease; type: cell-based; details: Homo sapiens, decrease in CJ mRNA levels, read-out: Target C IC50
Procedure: as §1, §2, §3, §4

[3] = system: MYB mRNA; experiment: Gene panel canonical junction qPCR assay, MYB CJ mRNA decrease; type: cell-based, human; details: Homo sapiens, decrease in CJ mRNA levels, read-out: MYB IC50
Procedure: as §1, §2, §3, §4

[4] = system: SMN2 mRNA; experiment: Gene panel canonical junction qPCR assay, SMN2 CJ mRNA decrease; type: cell-based, human; details: Homo sapiens, decrease in CJ mRNA levels, read-out: SMN2 IC50
Procedure: as §1, §2, §3, §4

Structure (SMILES)	pIC50 [1]	pIC50 [2]	pIC50 [3]	pIC50 [4]
Cc1cn2nc(NC(=O)c3sc(N4CCNC(C)C4)cc3F)cc2c(C)n1 (stereo not shown) [Compound 643]	< 5.00	< 5.00	< 5.00	< 5.00
Cc1cn2cc(NC(=O)c3ccc(C4CCNCC4)s3)cc(F)c2n1 [Compound 647]	< 5.00	< 5.00	5.00 to 6.00	< 5.00
Cc1cn2cc(NC(=O)c3sc(C4CCNCC4)c(Cl)c3Cl)cc(F)c2n1 [Compound 648]	< 5.00	< 5.00	< 5.00	< 5.00
CC1=NC2C(F)=CC(NC(=O)c3sc(C4CCNCC4)cc3F)=CC2O1 (stereo not shown) [Compound 657]	< 5.00	< 5.00	< 5.00	< 5.00
CC1=NC2C(F)=CC(NC(=O)c3sc(C4CCNCC4)cc3F)=CC2S1 (stereo not shown) [Compound 658]	< 5.00	< 5.00	< 5.00	< 5.00
Cc1cn2cc(NC(=O)c3sc(N4CCNC(C)C4)c(Cl)c3Cl)cc(F)c2n1 (stereo not shown) [Compound 659]	6.00 to 7.00	5.00 to 6.00	6.00 to 7.00	5.00 to 6.00
Cc1cn2cc(NC(=O)c3cc(Cl)c(N4CCNC(C)C4)s3)cc(F)c2n1 (stereo not shown) [Compound 660]	6.00 to 7.00	5.00 to 6.00	> 7.00	5.00 to 6.00
COc1cc(N2CCNCC2=O)sc1C(=O)Nc1cc(F)c2nc(C)cn2c1 [Compound 662]	< 5.00	< 5.00	< 5.00	< 5.00
Cc1cn2cc(NC(=O)c3sc(C4CCNCC4)cc3Cl)cc(F)c2n1 [Compound 663]	6.00 to 7.00	5.00 to 6.00	6.00 to 7.00	< 5.00
Cc1cn2nc(NC(=O)c3sc(C4CCNCC4)cc3F)nc2c(C)n1 [Compound 665]	> 7.00	6.00 to 7.00	> 7.00	5.00 to 6.00
